In PubChem BioAssay AID1259407 (Chemical Carcinogenesis Research Information System (CCRIS), 2018):
Calls of active or inactive are those of the source. The rule behind the calls is not given here.

Test system: CCRIS mutagenicity, Ames/micronucleus/aberration tests
Assay: CCRIS mutagenicity studies
Conditions: Method: PREINCUBATION

Measured: mutagenic call

O=C(Cl)Cc1ccccc1
active: Test System: AMES SALMONELLA TYPHIMURIUM, Strain/Indicator: TA98, Metabolic Activation: NONE active; positive | Test System: AMES SALMONELLA TYPHIMURIUM, Strain/Indicator: TA98, Metabolic Activation: RAT LIVER S-9, PCB active; positive | Test System: AMES SALMONELLA TYPHIMURIUM, Strain/Indicator: TA100, Metabolic Activation: NONE active; positive | Test System: AMES SALMONELLA TYPHIMURIUM, Strain/Indicator: TA100, Metabolic Activation: RAT LIVER S-9, PCB active; positive | Test System: AMES SALMONELLA TYPHIMURIUM, Strain/Indicator: TA104, Metabolic Activation: NONE active; positive | Test System: AMES SALMONELLA TYPHIMURIUM, Strain/Indicator: TA104, Metabolic Activation: RAT LIVER S-9, PCB active; positive | Test System: E.COLI, Strain/Indicator: WP2 UVRA, Metabolic Activation: NONE active; positive | Test System: E.COLI, Strain/Indicator: WP2 UVRA, Metabolic Activation: RAT LIVER S-9, PCB active; positive
